# Laboratory results: ChEMBL document CHEMBL4513160, “CO-ADD screening of MMV (CH) - Small Polar Library”
# What was measured:
# Pseudomonas aeruginosa [1] = experiment: Antibacterial activity against Pseudomonas aeruginosa PAO397 [PAO1 d(mexAB-oprM) d(mexCD-oprJ) d(mexEF-oprN) d(mexJKL) d(mexXY) d(opmH)] (CO-ADD:GN_211); MIC in CAMBH media using NBS plates, by OD(600); type: functional; settings: ASSAY_TEST Inhibition of Bacterial Growth, detection method Absorption (OD600), MEDIA CAMHB, plate type 384well, CORNING #3640, time 18 hr
# Pseudomonas aeruginosa [2] = experiment: microbe, parasite or virus in culture; settings: ATCC 27853, 18 h, ASSAY_TEST Inhibition of Bacterial Growth, detection method Absorption (OD600), MEDIA CAMHB, plate type 384well, NBS, CORNING #3640
# Description: Antibacterial activity against Pseudomonas aeruginosa ATCC 27853 (CO-ADD:GN_042); MIC in CAMBH media using NBS plates, by OD(600)
# Acinetobacter baumannii = experiment: microbe, parasite or virus in culture; settings: ATCC 19606, 18 h, ASSAY_TEST Inhibition of Bacterial Growth, detection method Absorption (OD600), MEDIA CAMHB, plate type 384well, NBS, CORNING #3640
# Description: Antibacterial activity against Acinetobacter baumannii ATCC 19606 (CO-ADD:GN_034); MIC in CAMBH media using NBS plates, by OD600
smiles,measurement,setting,value
COc1ccc(OC)c(NC(=O)c2ccccn2)c1,MIC,Pseudomonas aeruginosa [1],> 300 µM
same,MIC,Pseudomonas aeruginosa [2],> 300 µM
same,MIC,Acinetobacter baumannii,> 300 µM
CCc1c(C)nc2sc(C(N)=O)c(N)c2c1C,MIC,Pseudomonas aeruginosa [1],> 300 µM
same,MIC,Pseudomonas aeruginosa [2],> 300 µM
same,MIC,Acinetobacter baumannii,> 300 µM
NC(=O)C1CCN(c2ccnc3cc(Br)ccc23)C1 (configuration not stated),MIC,Pseudomonas aeruginosa [1],> 300 µM
same,MIC,Pseudomonas aeruginosa [2],> 300 µM
same,MIC,Acinetobacter baumannii,> 300 µM
CN(CCOc1ccc(Cl)cc1)C(=O)C(C)(C)CN,MIC,Pseudomonas aeruginosa [1],> 300 µM
same,MIC,Pseudomonas aeruginosa [2],> 300 µM
same,MIC,Acinetobacter baumannii,> 300 µM
O=C1NC(Cc2ccccc2)C(=O)Nc2ccccc21 (configuration not stated),MIC,Pseudomonas aeruginosa [1],> 300 µM
same,MIC,Pseudomonas aeruginosa [2],> 300 µM
same,MIC,Acinetobacter baumannii,> 300 µM
Cc1cc(NCCO)nc2ccccc12,MIC,Pseudomonas aeruginosa [1],> 300 µM
same,MIC,Pseudomonas aeruginosa [2],> 300 µM
same,MIC,Acinetobacter baumannii,> 300 µM
CN(C)CCC(=O)c1ccc(F)cc1,MIC,Pseudomonas aeruginosa [1],> 300 µM
same,MIC,Pseudomonas aeruginosa [2],> 300 µM
same,MIC,Acinetobacter baumannii,> 300 µM
CCn1cc(C(=O)Nc2ccc(Br)cn2)cn1,MIC,Pseudomonas aeruginosa [1],> 300 µM
same,MIC,Pseudomonas aeruginosa [2],> 300 µM
same,MIC,Acinetobacter baumannii,> 300 µM
CNC(=O)CCCNC(=O)Nc1nc2ccccc2s1,MIC,Pseudomonas aeruginosa [1],> 300 µM
same,MIC,Pseudomonas aeruginosa [2],> 300 µM
same,MIC,Acinetobacter baumannii,> 300 µM
CNC(CO)c1cccc(Cl)c1Cl (configuration not stated),MIC,Pseudomonas aeruginosa [1],> 300 µM
same,MIC,Pseudomonas aeruginosa [2],> 300 µM
same,MIC,Acinetobacter baumannii,> 300 µM
OC[C@@H]1CCCN1Cc1ccc(F)c2cccnc12,MIC,Pseudomonas aeruginosa [1],> 300 µM
same,MIC,Pseudomonas aeruginosa [2],> 300 µM
same,MIC,Acinetobacter baumannii,> 300 µM
CCCOc1ccc(CN)cc1,MIC,Pseudomonas aeruginosa [1],> 300 µM
same,MIC,Pseudomonas aeruginosa [2],> 300 µM
same,MIC,Acinetobacter baumannii,> 300 µM
Cc1cc(C(=O)NC2CCC(=O)NC2)cc(Cl)c1Br (configuration not stated),MIC,Pseudomonas aeruginosa [1],> 300 µM
same,MIC,Pseudomonas aeruginosa [2],> 300 µM
same,MIC,Acinetobacter baumannii,> 300 µM
Nc1ccnc(-c2ccccc2)c1,MIC,Pseudomonas aeruginosa [1],> 300 µM
same,MIC,Pseudomonas aeruginosa [2],> 300 µM
same,MIC,Acinetobacter baumannii,> 300 µM
Cc1ccncc1NC1CS(=O)(=O)c2ccccc21 (configuration not stated),MIC,Pseudomonas aeruginosa [1],> 300 µM
same,MIC,Pseudomonas aeruginosa [2],> 300 µM
same,MIC,Acinetobacter baumannii,> 300 µM
OCCNCCNCc1ccc(-c2ccccc2Cl)o1,MIC,Pseudomonas aeruginosa [1],> 300 µM
same,MIC,Pseudomonas aeruginosa [2],> 300 µM
same,MIC,Acinetobacter baumannii,> 300 µM
CCc1cccc2c1OCCC2N (configuration not stated),MIC,Pseudomonas aeruginosa [1],> 300 µM
same,MIC,Pseudomonas aeruginosa [2],> 300 µM
same,MIC,Acinetobacter baumannii,> 300 µM
CNCC(=O)NC(C)c1nc(-c2ccc(Br)cc2)no1 (configuration not stated),MIC,Pseudomonas aeruginosa [1],> 300 µM
same,MIC,Pseudomonas aeruginosa [2],> 300 µM
same,MIC,Acinetobacter baumannii,> 300 µM
Cc1ccc(C(=O)NCc2ccnc(N(C)C)c2)s1,MIC,Pseudomonas aeruginosa [1],> 300 µM
same,MIC,Pseudomonas aeruginosa [2],> 300 µM
same,MIC,Acinetobacter baumannii,> 300 µM
OC1(Cn2ccnn2)CCCNC1 (configuration not stated),MIC,Pseudomonas aeruginosa [1],> 300 µM
same,MIC,Pseudomonas aeruginosa [2],> 300 µM
same,MIC,Acinetobacter baumannii,> 300 µM
Cc1ncc(C)c(N)n1,MIC,Pseudomonas aeruginosa [1],> 300 µM
same,MIC,Pseudomonas aeruginosa [2],300 µM
same,MIC,Acinetobacter baumannii,> 300 µM
CCCOc1ccccc1C(=O)NC1CCNC1 (configuration not stated),MIC,Pseudomonas aeruginosa [1],25 µM
same,MIC,Pseudomonas aeruginosa [2],> 300 µM
same,MIC,Acinetobacter baumannii,> 300 µM
COCC(O)CNc1c(C)c(C)nc2ccccc12 (configuration not stated),MIC,Pseudomonas aeruginosa [1],> 300 µM
same,MIC,Pseudomonas aeruginosa [2],> 300 µM
same,MIC,Acinetobacter baumannii,> 300 µM
NCCC(=O)N1CCCC(CCc2ccc(F)cc2)C1 (configuration not stated),MIC,Pseudomonas aeruginosa [1],> 300 µM
same,MIC,Pseudomonas aeruginosa [2],> 300 µM
same,MIC,Acinetobacter baumannii,> 300 µM
NCc1nc(-c2ccc(Cl)cc2)c[nH]1,MIC,Pseudomonas aeruginosa [1],> 300 µM
same,MIC,Pseudomonas aeruginosa [2],> 300 µM
same,MIC,Acinetobacter baumannii,> 300 µM
Cn1ccnc1-c1noc(NC(=O)c2ccccn2)n1,MIC,Pseudomonas aeruginosa [1],> 300 µM
same,MIC,Pseudomonas aeruginosa [2],> 300 µM
same,MIC,Acinetobacter baumannii,> 300 µM
NCC(=O)N1CCCC(CCc2ccc(F)cc2)C1 (configuration not stated),MIC,Pseudomonas aeruginosa [1],> 300 µM
same,MIC,Pseudomonas aeruginosa [2],> 300 µM
same,MIC,Acinetobacter baumannii,> 300 µM
NCCNc1ccc2ccccc2n1,MIC,Pseudomonas aeruginosa [1],> 300 µM
same,MIC,Pseudomonas aeruginosa [2],> 300 µM
same,MIC,Acinetobacter baumannii,> 300 µM
CC(C)CNC(=O)CSc1n[nH]c(-c2ccccn2)n1,MIC,Pseudomonas aeruginosa [1],60 µM
same,MIC,Pseudomonas aeruginosa [2],> 300 µM
same,MIC,Acinetobacter baumannii,> 300 µM
N#Cc1ncn(CC(=O)c2ccc3c(c2)CCO3)n1,MIC,Pseudomonas aeruginosa [1],> 300 µM
same,MIC,Pseudomonas aeruginosa [2],> 300 µM
same,MIC,Acinetobacter baumannii,> 300 µM
O=C(Nc1cc[nH]n1)c1csc(I)c1,MIC,Pseudomonas aeruginosa [1],> 300 µM
same,MIC,Pseudomonas aeruginosa [2],> 300 µM
same,MIC,Acinetobacter baumannii,> 300 µM
NS(=O)(=O)NCCCc1ccc(Br)cc1F,MIC,Pseudomonas aeruginosa [1],> 300 µM
same,MIC,Pseudomonas aeruginosa [2],> 300 µM
same,MIC,Acinetobacter baumannii,> 300 µM
COc1ccc(CNCCCSc2nnnn2C)cc1,MIC,Pseudomonas aeruginosa [1],> 300 µM
same,MIC,Pseudomonas aeruginosa [2],> 300 µM
same,MIC,Acinetobacter baumannii,> 300 µM
c1cc2c(cc1C1=NN=C(NC3CC3)SC1)OCCO2,MIC,Pseudomonas aeruginosa [1],> 300 µM
same,MIC,Pseudomonas aeruginosa [2],> 300 µM
same,MIC,Acinetobacter baumannii,> 300 µM
CC(Sc1n[nH]c(-c2ccccn2)n1)C(=O)N(C)C (configuration not stated),MIC,Pseudomonas aeruginosa [1],> 300 µM
same,MIC,Pseudomonas aeruginosa [2],> 300 µM
same,MIC,Acinetobacter baumannii,> 300 µM
CC(CN)N(C)C(=O)Cc1cccc2ccccc12 (configuration not stated),MIC,Pseudomonas aeruginosa [2],> 300 µM
same,MIC,Acinetobacter baumannii,> 300 µM
